Activity calls are given as the source filed them. The rule behind the calls is not given here. Peptide text beside a SMILES is read from it.
Assays:
[1] = tested on: HeLa; assay: Induction of apoptosis in human HeLa cells assessed as DNA damage at 2xIC50 after 24 hrs by Hoechst-33342 staining based inverted fluorescence microscopic analysis; assay type: functional, cell-based
[2] = molecular target: 20S proteasome; assay: Inhibition of human 20S proteasome using Suc-LLVY-AMC as substrate measured every 5 mins for 120 mins by fluorescence based assay; assay type: protein-complex assay
[3] = tested on: BE(2)-C; assay: Antiproliferative activity against human BE(2)-C cells assessed as reduction in cell viability in presence of cisplatin after 48 hrs by MTT assay; assay type: functional, cell-based
[4] = tested on: HeLa; assay: Induction of membrane disruption in human HeLa cells assessed as membrane lysis at 2xIC50 after 24 hrs by SYTO9/PI-staining based inverted fluorescence microscopic analysis; conditions: Cell membrane
[5] = tested on: Candida albicans; assay: Synergistic antifungal activity against Candida albicans SC5314 assessed as FICI in presence of amphotericin B after 24 to 48 hrs by checker board assay; assay type: functional
[6] = tested on: HeLa; assay: Induction of membrane blebbing in human HeLa cells at 2xIC50 after 12 hrs by SEM analysis; assay type: cell-based; conditions: Cell membrane
[7] = tested on: BE(2)-C; assay: Induction of apoptosis in human BE(2)-C cells assessed as necrotic cells at 2xIC50 after 24 hrs by Alexa flour 488 annexin V/PI- staining based flow cytometric analysis relative to control; assay type: functional
[8] = tested on: HeLa; assay: Antiproliferative activity against human HeLa cells assessed as cell viability at 4.7 uM in presence of 6.3 uM cisplatin after 48 hrs by MTT assay relative to control; assay type: functional
[9] = tested on: Candida albicans; assay: Ratio of MIC for antifungal activity against Candida albicans SC5314 to MIC for antifungal activity against Candida albicans SC5314 in presence of amphotericin B after 24 to 48 hrs by checker board assay; assay type: functional
[10] = tested on: Candida albicans; assay: Antibiofilm activity against Candida albicans SC5314 assessed as inhibition of biofilm formation after 24 hrs by XTT-dye based assay; assay type: functional
[11] = tested on: BE(2)-C; assay: Antiproliferative activity against human BE(2)-C cells assessed as cell viability at 4.7 uM after 48 hrs by MTT assay relative to control; assay type: functional; conditions: read-out: Activity
[12] = tested on: HeLa; assay: Antiproliferative activity against human HeLa cells assessed as cell viability at 4.7 uM after 48 hrs by MTT assay relative to control; assay type: functional; conditions: read-out: Activity
[13] = tested on: HeLa; assay: Induction of apoptosis in human HeLa cells assessed as apoptotic cells at 2xIC50 after 24 hrs by Alexa flour 488 annexin V/PI- staining based flow cytometric analysis relative to control; assay type: functional
[14] = tested on: BE(2)-C; assay: Induction of apoptosis in human BE(2)-C cells assessed as DNA damage at 2xIC50 after 24 hrs by SYTO9/PI-staining based inverted fluorescence microscopic analysis; assay type: functional, cell-based
[15] = tested on: HeLa; assay: Induction of ROS generation in human HeLa cells after 24 hrs by DCFH-DA staining based fluorescence analysis; assay type: functional, cell-based
[16] = tested on: HeLa; assay: Induction of membrane disruption in human HeLa cells assessed as red fluorescence at 2xIC50 after 24 hrs by SYTO9/PI-staining based inverted fluorescence microscopic analysis; conditions: Cell membrane
[17] = tested on: BE(2)-C; assay: Antiproliferative activity against human BE(2)-C cells assessed as cell viability at 4.7 uM in presence of 5.3 uM cisplatin after 48 hrs by MTT assay relative to control; assay type: functional
[18] = molecular target: 20S proteasome (Homo sapiens) (UniProt P49721+P20618+P28074+P28062+P28065+P28072+P25786+P25787+P25788+P25789+P28066+P60900+O14818+Q8TAA3+P40306+A5LHX3+P49720+P28070+Q99436); assay: Inhibition of 20S proteasome in human BE(2)-C cells at 2xIC50 using LLVY-R110 peptide as substrate measured up to 36 hrs by fluorescence based assay; assay type: cell-based
[19] = tested on: Candida albicans; assay: Potentiation of amphotericin B-induced antifungal activity against Candida albicans SC5314 assessed as fold reduction in amphotericin MIC after 24 to 48 hrs by checker board assay relative to amphotericin alone; assay type: functional
[20] = tested on: BE(2)-C; assay: Induction of membrane disruption in human BE(2)-C cells assessed as membrane lysis at 2xIC50 after 24 hrs by SYTO9/PI-staining based inverted fluorescence microscopic analysis; conditions: Cell membrane
[21] = tested on: Candida albicans; assay: Antibiofilm activity against 24 hrs preformed biofilm of Candida albicans SC5314 assessed as biofilm cell eradication at 62.5 uM after 24 hrs by XTT assay relative to control; assay type: functional
[22] = tested on: BE(2)-C; assay: Induction of apoptosis in human BE(2)-C cells assessed as DNA damage at 2xIC50 after 24 hrs by Hoechst-33342 staining based inverted fluorescence microscopic analysis; assay type: functional, cell-based
[23] = tested on: BE(2)-C; assay: Antiproliferative activity against human BE(2)-C cells assessed as cell viability at 10.3 uM in presence of 5.3 uM cisplatin after 48 hrs by MTT assay relative to control; assay type: functional
[24] = tested on: BE(2)-C; assay: Antiproliferative activity against human BE(2)-C cells assessed as cell viability at 10.3 uM after 48 hrs by MTT assay relative to control; assay type: functional; conditions: read-out: Activity
[25] = tested on: HeLa; assay: Antiproliferative activity against human HeLa cells assessed as cell viability at 10.2 uM after 48 hrs by MTT assay relative to control; assay type: functional; conditions: read-out: Activity
[26] = tested on: Candida albicans; assay: Antibiofilm activity against 24 hrs preformed biofilm of Candida albicans SC5314 assessed as biofilm cell eradication at 125 uM after 24 hrs by XTT assay relative to control; assay type: functional
[27] = tested on: HeLa; assay: Antiproliferative activity against human HeLa cells assessed as cell viability at 10.2 uM in presence of 6.3 uM cisplatin after 48 hrs by MTT assay relative to control; assay type: functional

Compound | Activity [1] | IC50 [2] | IC50 [3] | Activity [4] | fractional inhibitory concentration index (FICI) [5] | Activity [6] | Activity [7] | Ratio [9] | MBIC [10] | Activity [13] | Activity [14] | Activity [15] | Activity [16] | inhibition [18] | fold change (FC) [19] | Activity [20] | Activity [22] | further results
CC(=O)N[C@@H](Cc1ccc(O)cc1)C(=O)NCC(=O)N[C@@H](CCCNC(=N)N)C(=O)N[C@@H](CCCCN)C(=O)N[C@@H](CCCCN)C(=O)N[C@@H](CCCNC(=N)N)C(=O)N[C@@H](CCCNC(=N)N)C(=O)N[C@@H](CCC(N)=O)C(=O)N[C@@H](CCCNC(=N)N)C(=O)N[C@@H](CCCNC(=N)N)C(=O)N[C@@H](CCCNC(=N)N)C(=O)NCC(=O)NCC(=O)NCC(=O)N[C@@H](Cc1ccc(O)cc1)C(=O)N[C@@H](CC(C)C)C(=O)N[C@@H](Cc1ccccc1)C(=O)N[C@H](C=O)CC(C)C (Ac-YGRKKRRQRRRGGGYLFL-aldehyde) | Active | 4.28 to 4.3 nM | 1580 nM | Active | 0.35 | Active | 65.4% | 5 | 7.8 µM | 80.5% | Active | Dose-dependent effect | Active | Active | 6 | Active | Active | Activity [8]: 18%; viability at 4.7 µM [11]: > 50%; viability at 4.7 µM [12]: > 50%; Activity [17]: 11%; Activity [21]: >50%
CC(=O)N[C@@H](Cc1ccc(O)cc1)C(=O)NCC(=O)N[C@@H](CCCNC(=N)N)C(=O)N[C@@H](CCCCN)C(=O)N[C@@H](CCCCN)C(=O)N[C@@H](CCCNC(=N)N)C(=O)N[C@@H](CCCNC(=N)N)C(=O)N[C@@H](CCC(N)=O)C(=O)N[C@@H](CCCNC(=N)N)C(=O)N[C@@H](CCCNC(=N)N)C(=O)N[C@@H](CCCNC(=N)N)C(=O)NCC(=O)NCC(=O)NCC(=O)N[C@@H](CC(C)C)C(=O)N[C@@H](CC(C)C)C(=O)N[C@H](C=O)CC(C)C (Ac-YGRKKRRQRRRGGGLLL-aldehyde) | Active | 2.5 nM | 4190 nM | Active | 0.36 | Active | 64.9% | 5 | 15.6 µM | 72.9% | Active | Dose-dependent effect | Active | Active | 6 | Active | Active | Activity [23]: 13%; viability at 10.3 µM [24]: > 50%; viability at 10.2 µM [25]: 52%; Activity [26]: >50%; Activity [27]: 14%
